Consider three compounds from patent US10568978B2, “Radiopharmaceutical synthesis methods” (Lantheus Medical Imaging, Inc., priority 2012, dated 2020).

Holding throughout (type): physicochemical
Data set [1] in a line: Filter retention: percent recovery of analyte after syringe-pump filtration, HPLC at 295 nm pre- and post-filtration. The procedure:
In particular, compositions comprising BMS-747158-01 and BMS-747159-01 were prepared in water comprising absolute ethanol (4 wt. %) and sodium ascorbate (50 mg/mL; 5 wt. %) then loaded into plastic syringes (Norm-Ject™; 12 mL) and placed onto an automated syringe pump. Select filters were then placed on each respective syringe and the composition pumped through the units in a controlled fashion. In all cases, gravimetric analysis of the solution transfer process was performed in order to monitor efficiency of the liquid handling steps. Subsequent quantitative analysis of filter retention was then performed following HPLC determination of the absolute concentration of each analyte in both the pre- and post-filtered solutions; HPLC analysis with detection at 295 nm was performed according to established methods. The following equation was then utilized to determine the percent recovery for each analyte:
[formula] Note a higher value of percent recovery equates to lower retention of the respective analyte, and thus improved overall filter performance. The analysis described herein captures both the mass of the compound that is retained as well as the volume of liquid that is retained. As no normalization is performed, the analysis thus allows for direct comparison of relevant filter parameters.
The compositions comprising BMS-747158-01 and BMS-747159-01 were passed through a variety of filters, as described herein. Individual filter parameters varied in terms of both membrane and housing composition, overall filter diameter, and in some instances the applied coating (Table 1). Further, effects of both individual analyte concentration as well as the overall rate of filtration were also evaluated.

A short description of data set [2]: Measured log D (relative lipophilicity of analytes). The following applies: relative to BMS-747158-01.
Data set [3] can be described thus: Retention of flurpiridaz F 18 on PVDF, PTFE and RC filters with synthesis modules. Particulars: Siemens Explora GN/LC (manual) and GE TracerLab MX (automated) modules; FIG. 9. An excerpt: This was particularly surprising since structurally and chemically, the PVDF filter is more similar to the PTFE filter than the RC filter. Further, the data substantiate that use of the RC filter membrane improves recovery of ^18F-bearing radiopharmaceuticals across multiple synthesis module platforms.

In the case of `CC(C)(C)n1ncc(OCc2ccc(COCCF)cc2)c(Cl)c1=O` [BMS-747158-01], the “retention by filter housing composition” value in data set [1] (HDPE and PP housings (no aromatic rings), filters of identical diameter, FIG. 5) is recorded as “retained lower amounts”. Further, the “retention on PTFE and RC membranes in comparison to PVDF” value in data set [1] (PTFE and RC filter membranes vs PVDF, FIG. 8) is “retained lower amounts”. Moreover, in data set [1] (PVDF membrane vs other membranes, filters of identical diameter, FIG. 4), the “retention by membrane composition” value was “retains the greatest amount”. Also, the “retention after the initial filtration” value in data set [1] (Pall PVDF filter, initial filtration, FIG. 6) is on record as “retained large amounts”.

As for `CC(C)(C)n1ncc(OCc2ccc(COCCO)cc2)c(Cl)c1=O` [BMS-747159-01], the “lipophilicity (measured log D, relative)” value in data set [2] is given as “lower inherent lipophilicity”.

For `CC(C)(C)n1ncc(OCc2ccc(COCC[18F])cc2)c(Cl)c1=O` [flurpiridaz F 18], the “retention on PTFE and RC filters vs PVDF filter” value in data set [3] was “retain far less”.
